Results published in patent US20170334891A1, “ENHANCER OF ZESTE HOMOLOG 2 INHIBITORS” (GLAXOSMITHKLINE INTELLECTUAL PROPERTY (NO.2) LIMITED, priority 2014, published 2017).

Molecular target: T1, EZH2 within the PRC2 complex (Homo sapiens, UniProt Q15910)
T1 construct: FLAG; made in house; host or cells: Sf9 cells
Experiment: EZH2 methyltransferase scintillation proximity assay (SPA)
Format: biochemical
Conditions: Human PRC2 5 member complex (FLAG-EZH2, EED, SUZ12, RbAp48, AEBP2), 1 nM enzyme, biotinylated histone H3K27 peptide, 3H-SAM, 60 min at room temperature
Protocol: Compounds contained herein were evaluated for their ability to inhibit the methyltransferase activity of EZH2 within the PRC2 complex. Human PRC2 complex was prepared by co-expressing each of the 5 member proteins (FLAG-EZH2, EED, SUZ12, RbAp48, AEBP2) in Sf9 cells followed by co-purification. Enzyme activity was measured in a scintillation proximity assay (SPA) where a tritiated methyl group is transferred from 3H-SAM to a lysine residue on a biotinylated, unmethylated peptide substrate derived from histone H3. The peptides were captured on streptavidin-coated SPA beads and the resulting signal was read on a ViewLux plate reader.
• 1. Prepare 10 mM stock of compounds from solid in 100% DMSO. • 2. Set up an 11-point serial dilution (1:4 dilution, top concentration 10 mM) in 100% DMSO for each test compound in a 384 well plate leaving columns 6 and 18 for DMSO controls. • 3. Dispense 10 nL of compound from the dilution plate into reaction plates (Corning, 384-well polystyrene NBS, Cat#3673).
Prepare the following solutions: • 1. 1× Base Buffer, 50 mM Tris-HCl, pH 8, 2 mM MgCl2: Per 1 L of base buffer, combine 1 M Tris-HCl, pH 8 (50 mL), 1 M MgCl2 (2 mL), and distilled water (948 mL). • 2. 1× Assay Buffer: Per 10 mL of 1× Assay Buffer, combine 1× Base Buffer (9.96 mL), 1 M DTT (40 uL), and 10% Tween-20 (1 uL) to provide a final concentration of 50 mM Tris-HCl, pH 8, 2 mM MgCl2, 4 mM DTT, 0.001% Tween-20. • 3. 2× Enzyme Solution: Per 10 mL of 2× Enzyme Solution, combine 1× Assay Buffer (9.99 mL) and 3.24 uM EZH2 5 member complex (6.17 uL) to provide a final enzyme concentration of 1 nM. • 4. SPA Bead Solution: Per 1 mL of SPA Bead Solution, combine Streptavidin coated SPA beads (PerkinElmer, Cat# RPNQ0261, 40 mg) and 1× Assay Buffer (1 mL) to provide a working concentration of 40 mg/mL. • 5. 2× Substrate Solution: Per 10 mL of 2× Substrate Solution, combine 40 mg/mL SPA Bead Solution (375 uL), 1 mM biotinylated histone H3K27 peptide (200 uL), 12.5 uM 3H-SAM (240 uL; 1 mCi/mL), 1 mM cold SAM (57 uL), and 1× Assay Buffer (9.13 mL) to provide a final concentration of 0.75 mg/mL SPA Bead Solution, 10 uM biotinylated histone H3K27 peptide, 0.15 uM 3H-SAM (˜12 uCi/mL 3H-SAM), and 2.85 uM cold SAM. • 6. 2.67× Quench Solution: Per 10 mL of 2.67× Quench Solution, combine 1× Assay Buffer (9.73 mL) and 10 mM cold SAM (267 uL) to provide a final concentration of 100 uM cold SAM.
• 1. Stamp 10 nL/well of 1000× Compound to test wells (as noted above). • 2. Stamp 10 nL/well of 100% DMSO to columns 6 & 18 (high and low controls, respectively).
• 1. Dispense 5 uL/well of 1× Assay Buffer to column 18 (low control reactions). • 2. Dispense 5 uL/well of 2× Substrate Solution to columns 1-24 (note: substrate solution should be mixed to ensure homogeneous bead suspension before dispensing into matrix reservoir). • 3. Dispense 5 uL/well of 2× Enzyme Solution to columns 1-17, 19-24. • 4. Incubate the reaction for 60 min at room temperature.
• 1. Dispense 6 uL/well of the 2.67× Quench Solution to columns 1-24. • 2. Seal assay plates and spin for ˜1 min at 500 rpm. • 3. Dark adapt plates in the ViewLux instrument for 15-60 min.
• 1. Read the assay plates on the Viewlux Plate Reader utilizing the 613 nm emission filter or clear filter (300 s exposure). Reagent addition can be done manually or with automated liquid handler.
Percent inhibition was calculated relative to the DMSO control for each compound concentration and the resulting values were fit using standard IC50 fitting parameters within the ABASE data fitting software package.
The IC50 values of <10 nM indicate that the activity of compound was approaching the limit of detection in the assay. Repeating the assay run(s) may result in somewhat different IC50 values.

T1 sequence (Q15910 whole entry): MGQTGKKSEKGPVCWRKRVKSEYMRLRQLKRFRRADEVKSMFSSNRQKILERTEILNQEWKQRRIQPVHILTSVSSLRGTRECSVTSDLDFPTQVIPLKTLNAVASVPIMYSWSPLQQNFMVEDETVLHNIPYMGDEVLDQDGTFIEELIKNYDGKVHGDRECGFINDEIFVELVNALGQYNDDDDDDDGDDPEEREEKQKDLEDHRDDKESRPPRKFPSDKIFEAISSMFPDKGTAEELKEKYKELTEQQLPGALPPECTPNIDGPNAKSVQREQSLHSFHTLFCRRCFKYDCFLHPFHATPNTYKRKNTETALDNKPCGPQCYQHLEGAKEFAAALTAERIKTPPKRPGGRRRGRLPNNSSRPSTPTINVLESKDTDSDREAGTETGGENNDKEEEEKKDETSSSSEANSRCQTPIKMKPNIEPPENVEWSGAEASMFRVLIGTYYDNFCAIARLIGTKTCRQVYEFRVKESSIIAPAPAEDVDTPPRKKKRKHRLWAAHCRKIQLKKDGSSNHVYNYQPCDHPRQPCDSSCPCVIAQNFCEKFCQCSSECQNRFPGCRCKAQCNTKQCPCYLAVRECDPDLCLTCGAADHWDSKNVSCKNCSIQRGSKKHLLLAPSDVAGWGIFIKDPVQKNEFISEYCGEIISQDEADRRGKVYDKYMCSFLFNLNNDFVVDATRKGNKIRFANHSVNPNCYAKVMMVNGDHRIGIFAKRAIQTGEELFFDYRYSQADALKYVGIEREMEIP
T1 sequence (O75530 whole entry partner): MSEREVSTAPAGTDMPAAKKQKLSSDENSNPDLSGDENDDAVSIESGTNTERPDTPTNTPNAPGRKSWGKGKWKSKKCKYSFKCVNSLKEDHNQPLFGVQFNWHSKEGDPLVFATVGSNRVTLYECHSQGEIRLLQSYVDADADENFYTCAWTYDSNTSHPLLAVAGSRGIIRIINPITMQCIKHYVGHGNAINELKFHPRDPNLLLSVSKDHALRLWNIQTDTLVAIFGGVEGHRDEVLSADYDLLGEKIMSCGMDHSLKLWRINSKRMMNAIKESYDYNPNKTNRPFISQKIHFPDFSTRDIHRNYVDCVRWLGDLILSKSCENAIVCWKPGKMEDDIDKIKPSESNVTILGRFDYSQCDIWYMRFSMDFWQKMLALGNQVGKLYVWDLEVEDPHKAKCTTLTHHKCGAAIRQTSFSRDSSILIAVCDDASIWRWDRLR
T1 sequence (Q15022 whole entry partner): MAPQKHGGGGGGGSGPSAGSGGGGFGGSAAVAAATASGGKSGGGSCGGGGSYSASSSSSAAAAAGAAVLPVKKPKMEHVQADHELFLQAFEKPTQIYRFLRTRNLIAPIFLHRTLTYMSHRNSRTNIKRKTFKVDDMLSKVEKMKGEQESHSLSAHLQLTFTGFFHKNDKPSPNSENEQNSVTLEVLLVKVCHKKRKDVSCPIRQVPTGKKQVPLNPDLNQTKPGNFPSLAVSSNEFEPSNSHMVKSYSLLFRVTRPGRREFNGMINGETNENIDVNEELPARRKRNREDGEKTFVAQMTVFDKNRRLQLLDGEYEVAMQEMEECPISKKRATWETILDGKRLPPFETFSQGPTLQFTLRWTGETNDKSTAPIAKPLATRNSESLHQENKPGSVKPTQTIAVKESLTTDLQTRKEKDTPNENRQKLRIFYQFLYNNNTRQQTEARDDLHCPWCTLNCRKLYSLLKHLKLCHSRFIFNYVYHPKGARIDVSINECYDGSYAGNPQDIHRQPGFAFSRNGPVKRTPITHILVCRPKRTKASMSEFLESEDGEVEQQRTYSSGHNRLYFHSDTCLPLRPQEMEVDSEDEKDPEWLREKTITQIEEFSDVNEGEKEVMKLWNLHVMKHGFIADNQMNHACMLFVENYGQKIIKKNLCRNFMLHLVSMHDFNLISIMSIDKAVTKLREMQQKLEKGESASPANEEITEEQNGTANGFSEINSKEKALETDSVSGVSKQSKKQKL
T1 sequence (Q09028 whole entry partner): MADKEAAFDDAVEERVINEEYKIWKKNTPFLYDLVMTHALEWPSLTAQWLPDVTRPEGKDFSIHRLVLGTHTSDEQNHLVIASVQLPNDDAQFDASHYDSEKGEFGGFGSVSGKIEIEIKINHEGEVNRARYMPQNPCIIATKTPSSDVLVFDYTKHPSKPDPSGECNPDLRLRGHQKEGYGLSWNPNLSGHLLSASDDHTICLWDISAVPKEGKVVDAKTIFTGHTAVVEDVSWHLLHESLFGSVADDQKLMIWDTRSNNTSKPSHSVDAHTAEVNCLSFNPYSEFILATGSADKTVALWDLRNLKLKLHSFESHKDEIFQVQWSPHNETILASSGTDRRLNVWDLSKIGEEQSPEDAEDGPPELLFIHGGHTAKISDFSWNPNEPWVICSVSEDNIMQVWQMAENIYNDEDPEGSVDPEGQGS
T1 sequence (Q6ZN18 whole entry partner): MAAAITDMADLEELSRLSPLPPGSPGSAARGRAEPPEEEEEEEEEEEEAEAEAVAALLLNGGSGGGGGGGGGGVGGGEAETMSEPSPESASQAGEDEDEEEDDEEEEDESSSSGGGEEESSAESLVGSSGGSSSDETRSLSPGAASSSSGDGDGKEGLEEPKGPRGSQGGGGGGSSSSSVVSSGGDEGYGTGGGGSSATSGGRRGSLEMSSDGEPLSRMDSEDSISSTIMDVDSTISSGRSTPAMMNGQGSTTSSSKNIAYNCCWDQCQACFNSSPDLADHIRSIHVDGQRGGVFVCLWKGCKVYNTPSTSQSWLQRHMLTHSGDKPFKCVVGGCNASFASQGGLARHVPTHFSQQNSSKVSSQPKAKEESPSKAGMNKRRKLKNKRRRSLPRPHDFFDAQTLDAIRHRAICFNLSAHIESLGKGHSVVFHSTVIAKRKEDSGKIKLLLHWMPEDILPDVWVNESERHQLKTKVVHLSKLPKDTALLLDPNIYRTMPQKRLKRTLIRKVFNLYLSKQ

Row | SMILES | IC50 [nM]
1 | CCC(c1scc(C(=O)NCc2c(C)cc(C)[nH]c2=O)c1C)C1CCN(CC(C)(C)F)CC1 (racemic) [Example 6, N-((4,6-Dimethyl-2-oxo-1,2-dihydropyridin-3-yl)methyl)-5-(1-(1-(2-fluoro-2-methylpropyl)piperidin-4-yl)propyl)-4-methylthiophene-3-carboxamide] | 50
2 | CCC(c1scc(C(=O)NCc2c(C)cc(C)[nH]c2=O)c1C)C1CCN(CC(F)(F)F)CC1 (racemic) [Example 11, N-((4,6-Dimethyl-2-oxo-1,2-dihydropyridin-3-yl)methyl)-4-methyl-5-(1-(1-(2,2,2-trifluoroethyl)piperidin-4-yl)propyl)thiophene-3-carboxamide] | 20
3 | CCC(c1scc(C(=O)NCc2c(C)cc(C)[nH]c2=O)c1C)C1CCN(CC(F)F)CC1 (racemic) [Example 14, 5-(1-(1-(2,2-Difluoroethyl)piperidin-4-yl)propyl)-N-((4,6-dimethyl-2-oxo-1,2-dihydropyridin-3-yl)methyl)-4-methylthiophene-3-carboxamide] | 40
4 | CCC(=C1CCN(CC(C)(F)F)CC1)c1scc(C(=O)NCc2c(C)cc(C)[nH]c2=O)c1C [Example 1, 5-(1-(1-(2,2-Difluoropropyl)piperidin-4-ylidene)propyl)-N-((4,6-dimethyl-2-oxo-1,2-dihydropyridin-3-yl)methyl)-4-methylthiophene-3-carboxamide] | 16
5 | CC[C@@H](c1scc(C(=O)NCc2c(C)cc(C)[nH]c2=O)c1C)C1CCN(CC(C)(F)F)CC1 [Example 4, (R)-5-(1-(1-(2,2-Difluoropropyl)piperidin-4-yl)propyl)-N-((4,6-dimethyl-2-oxo-1,2-dihydropyridin-3-yl)methyl)-4-methylthiophene-3-carboxamide] | 20
6 | CC[C@H](c1scc(C(=O)NCc2c(C)cc(C)[nH]c2=O)c1C)C1CCN(CC(C)(F)F)CC1 [Example 5, (S)-5-(1-(1-(2,2-Difluoropropyl)piperidin-4-yl)propyl)-N-((4,6-dimethyl-2-oxo-1,2-dihydropyridin-3-yl)methyl)-4-methylthiophene-3-carboxamide] | 501
7 | CCC(=C1CCN(N(C)C)CC1)c1scc(C(=O)NCc2c(C)cc(C)[nH]c2=O)c1C [Example 7, N-((4,6-Dimethyl-2-oxo-1,2-dihydropyridin-3-yl)methyl)-5-(1-(1-(dimethylamino)piperidin-4-ylidene)propyl)-4-methylthiophene-3-carboxamide] | 20
8 | CCC(=C1CCN(O)CC1)c1scc(C(=O)NCc2c(C)cc(C)[nH]c2=O)c1C [Example 8, N-((4,6-Dimethyl-2-oxo-1,2-dihydropyridin-3-yl)methyl)-5-(1-(1-hydroxypiperidin-4-ylidene)propyl)-4-methylthiophene-3-carboxamide] | 16
9 | CCC(c1sc2c(c1C)C(=O)N(Cc1c(C)cc(C)[nH]c1=O)CC2)N1CCC(N(C)C)CC1 (centres unmarked) [Example 9] | 50
10 | CCC(c1sc2c(c1C)C(=O)N(Cc1c(C)cc(C)[nH]c1=O)CC2)C1CCN(CC(C)(F)F)CC1 (centres unmarked) [Example 16, 2-(1-(1-(2,2-Difluoropropyl)piperidin-4-yl)propyl)-5-((4,6-dimethyl-2-oxo-1,2-dihydropyridin-3-yl)methyl)-3-methyl-6,7-dihydrothieno[3,2-c]pyridin-4(5H)-one] | 100
11 | CCC(c1sc2c(c1C)C(=O)N(Cc1c(C)cc(C)[nH]c1=O)CC2)C1CCN(CC(C)F)CC1 (centres unmarked) [Example 17, 5-((4,6-Dimethyl-2-oxo-1,2-dihydropyridin-3-yl)methyl)-2-(1-(1-(2-fluoropropyl)piperidin-4-yl)propyl)-3-methyl-6,7-dihydrothieno[3,2-c]pyridin-4(5H)-one] | 100
12 | CCC(c1scc(C(=O)NCc2c(C)cc(C)[nH]c2=O)c1C)C1CCN(/C(=N\C#N)NC)CC1 (centres unmarked) [Example 19, 5-(1-(1-(N′-Cyano-N-methylcarbamimidoyl)piperidin-4-yl)propyl)-N-((4,6-dimethyl-2-oxo-1,2-dihydropyridin-3-yl)methyl)-4-methylthiophene-3-carboxamide] | 316

Stronger by IC50, values ahead:

Row | IC50 [nM] | SMILES
13 | ≤ 10 | CCC(=C1CCN(CC(C)(C)F)CC1)c1scc(C(=O)NCc2c(C)cc(C)[nH]c2=O)c1C [Example 2, N-((4,6-Dimethyl-2-oxo-1,2-dihydropyridin-3-yl)methyl)-5-(1-(1-(2-fluoro-2-methylpropyl)piperidin-4-ylidene)propyl)-4-methylthiophene-3-carboxamide]
14 | ≤ 10 | CCC(=C1CCN(CC(F)(F)F)CC1)c1scc(C(=O)NCc2c(C)cc(C)[nH]c2=O)c1C [Example 3, N-((4,6-Dimethyl-2-oxo-1,2-dihydropyridin-3-yl)methyl)-4-methyl-5-(1-(1-(2,2,2-trifluoroethyl)piperidin-4-ylidene)propyl)thiophene-3-carboxamide]
15 | ≤ 10 | CCC(=C1CCC(O)CC1)c1scc(C(=O)NCc2c(C)cc(C)[nH]c2=O)c1C (centres unmarked) [Example 10, N-((4,6-Dimethyl-2-oxo-1,2-dihydropyridin-3-yl)methyl)-5-(1-(4-hydroxycyclohexylidene)propyl)-4-methylthiophene-3-carboxamide]
16 | ≤ 10 | CCC(=C1CCN(Cc2ncco2)CC1)c1scc(C(=O)NCc2c(C)cc(C)[nH]c2=O)c1C [Example 12, N-((4,6-Dimethyl-2-oxo-1,2-dihydropyridin-3-yl)methyl)-4-methyl-5-(1-(1-(oxazol-2-ylmethyl)piperidin-4-ylidene)propyl)thiophene-3-carboxamide]
17 | 13 | CCC(=C1CCN(c2ncccn2)CC1)c1scc(C(=O)NCc2c(C)cc(C)[nH]c2=O)c1C [Example 13, N-((4,6-Dimethyl-2-oxo-1,2-dihydropyridin-3-yl)methyl)-4-methyl-5-(1-(1-(pyrimidin-2-yl)piperidin-4-ylidene)propyl)thiophene-3-carboxamide]
18 | ≤ 10 | CCC(=C1CCN(/C(=N/C#N)NC)CC1)c1scc(C(=O)NCc2c(C)cc(C)[nH]c2=O)c1C [Example 15, 5-(1-(1-(N′-Cyano-N-methylcarbamimidoyl)piperidin-4-ylidene)propyl)-N-((4,6-dimethyl-2-oxo-1,2-dihydropyridin-3-yl)methyl)-4-methylthiophene-3-carboxamide]
19 | ≤ 10 | CCC(c1sc2c(c1C)C(=O)N(Cc1c(C)cc(C)[nH]c1=O)CC2)C1CCN(/C(=N\C#N)NC)CC1 (centres unmarked) [Example 18, N′-Cyano-4-(1-(5-((4,6-dimethyl-2-oxo-1,2-dihydropyridin-3-yl)methyl)-3-methyl-4-oxo-4,5,6,7-tetrahydrothieno[3,2-c]pyridin-2-yl)propyl)-N-methylpiperidine-1-carboximidamide]
20 | ≤ 10 | CCC(=C1CCN(CC(F)F)CC1)c1scc(C(=O)NCc2c(C)cc(C)[nH]c2=O)c1C [Example 20, 5-(1-(1-(2,2-Difluoroethyl)piperidin-4-ylidene)propyl)-N-((4,6-dimethyl-2-oxo-1,2-dihydropyridin-3-yl)methyl)-4-methylthiophene-3-carboxamide]
